Experimental data reported in article PMC8571282 (Nature Communications, 2021).
Several values for one entry are separate records, joined by “and”; a condition that tells them apart may be missing. Identical values can stand only once. Like-named read-outs stand apart in the source and are kept apart here.

Key:
[1] = Toxicity-testing across the cell panel (range); conditions: human, African green monkey, hamster
[2] = dogs, reported; cited from earlier work
[3] = system: HCT-8 cells; test: Cytotoxicity assay (PrestoBlue), HCT-8; conditions: for % cell viability: 72 h
[4] = in vitro; conditions: human, CC50, “M2” HAE
[5] = system: SARS-CoV-2 WA1/2020; type: in vivo, ferret (Mustela putorius furo); conditions: for Transform of Nasal lavage titer, Mean 2 (treated group) / Transform of Nasal lavage titer, Mean Diff. (Vehicle vs. treated): Fig 3b; for Transform of Nasal lavage titer, Mean 2 (treated group) / Transform of Nasal lavage titer, Mean Diff. (Vehicle vs. treated) / Transform of Nasal Turbinate titer, Mean 2 (treated group) / Transform of Nasal Turbinate titer, Mean Diff. (Vehicle vs. treated): b.i.d.; for Transform of Nasal Turbinate titer, Mean 2 (treated group) / Transform of Nasal Turbinate titer, Mean Diff. (Vehicle vs. treated): Fig 3c; for Transform of Nasal Lavage RNA copies, Mean 2 (treated group) / Transform of Nasal Lavage RNA copies, Mean Diff. (Vehicle vs. treated): Fig 3f; for Transform of Nasal Lavage RNA copies, Mean 2 (treated group): unit not given here; for Transform of Nasal Lavage RNA copies, Mean Diff. (Vehicle vs. treated): unit not given here; for Transform of Nasal lavage titer, Mean 2 (treated group): unit not given here; for Transform of Nasal lavage titer, Mean Diff. (Vehicle vs. treated): unit not given here
[6] = system: “M2” primary HAE cells; test: Cytotoxicity assay (PrestoBlue), “M2” HAE; conditions: 72 h; for % cell viability: M2 HAE
[7] = system: SARS-CoV-2 VOC γ (BZ/2021); type: in vivo, ferret (Mustela putorius furo)
[8] = system: “DF2” primary HAE cells (diseased, asthma); conditions: 72 h
[9] = in vitro; conditions: male, human, % cell viability, M6 HAE, 0.046 µM

In the case of `N#C[C@@]1(c2ccc3c(N)ncnn23)O[C@H](CO)[C@@H](O)[C@H]1O` [GS-441524], the CC50 at 72 h [1] is listed as over 100 µM and the oral availability [2] is listed as 89%.
In the case of `CC(C)C(=O)OCC1OC(C#N)(c2ccc3c(N)ncnn23)C(OC(=O)C(C)C)C1OC(=O)C(C)C` (stereo not shown) [GS-621763], the “% cell viability” value ([3]; HCT-8, 0.046 µM, 0.046 µM) is reported as 75% and 72%, the “% cell viability” value ([3]; HCT-8, 1.235 µM, 1.235 µM) is reported as 103% and the “% cell viability” value ([3]; HCT-8, 33.333 µM, 33.333 µM) is reported as 96%. For the same compound, the “% cell viability” value ([3]; HCT-8, 100 µM, 100 µM) was 1%, the CC50 ([3]; HCT-8, 72 h) was 74.6 µM and the CC50 at 72 h [4] was 39.7 µM. For the same compound, the “Transform of Nasal lavage titer, Mean 2 (treated group)” value ([5]; Day 0, 3 mg/kg) was 0.699, the “Transform of Nasal lavage titer, Mean Diff. (Vehicle vs. treated)” value ([5]; Day 0, 3 mg/kg) was 0 and the “Transform of Nasal lavage titer, Mean 2 (treated group)” value ([5]; Day 0, 10 mg/kg) was 0.699. The “Transform of Nasal lavage titer, Mean Diff. (Vehicle vs. treated)” value ([5]; Day 0, 10 mg/kg) was 0, the “Transform of Nasal lavage titer, Mean 2 (treated group)” value ([5]; Day 0.5, 3 mg/kg) was 2.775 and the “Transform of Nasal lavage titer, Mean Diff. (Vehicle vs. treated)” value ([5]; Day 0.5, 3 mg/kg) was -0.18. For the same compound, the “Transform of Nasal lavage titer, Mean 2 (treated group)” value ([5]; Day 0.5, 10 mg/kg) was 2.413, the “Transform of Nasal lavage titer, Mean Diff. (Vehicle vs. treated)” value ([5]; Day 0.5, 10 mg/kg) was 0.1817 and the “Transform of Nasal lavage titer, Mean 2 (treated group)” value ([5]; Day 1, 3 mg/kg) was 2.834. For the same compound, the “Transform of Nasal lavage titer, Mean Diff. (Vehicle vs. treated)” value ([5]; Day 1, 3 mg/kg) was 0.8732, the “Transform of Nasal lavage titer, Mean 2 (treated group)” value ([5]; Day 1, 10 mg/kg) was 2.126 and the “Transform of Nasal lavage titer, Mean Diff. (Vehicle vs. treated)” value ([5]; Day 1, 10 mg/kg) was 1.581. The “Transform of Nasal lavage titer, Mean 2 (treated group)” value ([5]; Day 1.5, 3 mg/kg) was 3.42, the “Transform of Nasal lavage titer, Mean Diff. (Vehicle vs. treated)” value ([5]; Day 1.5, 3 mg/kg) was 1.236 and the “Transform of Nasal lavage titer, Mean 2 (treated group)” value ([5]; Day 1.5, 10 mg/kg) was 2.277. The “Transform of Nasal lavage titer, Mean Diff. (Vehicle vs. treated)” value ([5]; Day 1.5, 10 mg/kg) was 2.379, the “Transform of Nasal lavage titer, Mean 2 (treated group)” value ([5]; Day 2, 3 mg/kg) was 3.882 and the “Transform of Nasal lavage titer, Mean Diff. (Vehicle vs. treated)” value ([5]; Day 2, 3 mg/kg) was 0.3882. The “Transform of Nasal lavage titer, Mean 2 (treated group)” value ([5]; Day 2, 10 mg/kg) was 1.369, the “Transform of Nasal lavage titer, Mean Diff. (Vehicle vs. treated)” value ([5]; Day 2, 10 mg/kg) was 2.901 and the “Transform of Nasal lavage titer, Mean 2 (treated group)” value ([5]; Day 2.5, 3 mg/kg) was 3.714. For the same compound, the “Transform of Nasal lavage titer, Mean Diff. (Vehicle vs. treated)” value ([5]; Day 2.5, 3 mg/kg) was 0.4855, the “Transform of Nasal lavage titer, Mean 2 (treated group)” value ([5]; Day 2.5, 10 mg/kg) was 1.314 and the “Transform of Nasal lavage titer, Mean Diff. (Vehicle vs. treated)” value ([5]; Day 2.5, 10 mg/kg) was 2.886. The “Transform of Nasal lavage titer, Mean 2 (treated group)” value ([5]; Day 3, 3 mg/kg) was 3.088, the “Transform of Nasal lavage titer, Mean Diff. (Vehicle vs. treated)” value ([5]; Day 3, 3 mg/kg) was 0.713 and the “Transform of Nasal lavage titer, Mean 2 (treated group)” value ([5]; Day 3, 10 mg/kg) was 0.8495. The “Transform of Nasal lavage titer, Mean Diff. (Vehicle vs. treated)” value ([5]; Day 3, 10 mg/kg) was 2.952, the “Transform of Nasal lavage titer, Mean 2 (treated group)” value ([5]; Day 3.5, 3 mg/kg) was 3.452 and the “Transform of Nasal lavage titer, Mean Diff. (Vehicle vs. treated)” value ([5]; Day 3.5, 3 mg/kg) was 0.4247. For the same compound, the “Transform of Nasal lavage titer, Mean 2 (treated group)” value ([5]; Day 3.5, 10 mg/kg) was 1.758, the “Transform of Nasal lavage titer, Mean Diff. (Vehicle vs. treated)” value ([5]; Day 3.5, 10 mg/kg) was 2.118 and the “Transform of Nasal lavage titer, Mean 2 (treated group)” value ([5]; Day 4, 3 mg/kg) was 3.139. For the same compound, the “Transform of Nasal lavage titer, Mean Diff. (Vehicle vs. treated)” value ([5]; Day 4, 3 mg/kg) was 0.849, the “Transform of Nasal lavage titer, Mean 2 (treated group)” value ([5]; Day 4, 10 mg/kg) was 1 and the “Transform of Nasal lavage titer, Mean Diff. (Vehicle vs. treated)” value ([5]; Day 4, 10 mg/kg) was 2.988. For the same compound, the “Transform of Nasal Turbinate titer, Mean 2 (treated group)” value ([5]; 3 mg/kg) was 4.557, the “Transform of Nasal Turbinate titer, Mean Diff. (Vehicle vs. treated)” value ([5]; 3 mg/kg) was 1.366 and the “Transform of Nasal Turbinate titer, Mean 2 (treated group)” value ([5]; 10 mg/kg) was 3.042. For the same compound, the “Transform of Nasal Turbinate titer, Mean Diff. (Vehicle vs. treated)” value ([5]; 10 mg/kg) was 2.881, the “Transform of Nasal Lavage RNA copies, Mean 2 (treated group)” value ([5]; Row 1 (time), 3mg/kg b.i.d.) was 0 and the “Transform of Nasal Lavage RNA copies, Mean Diff. (Vehicle vs. treated)” value ([5]; Row 1 (time), 3mg/kg b.i.d.) was 0. The “Transform of Nasal Lavage RNA copies, Mean 2 (treated group)” value ([5]; Row 1 (time), 10mg/kg b.i.d.) was 0, the “Transform of Nasal Lavage RNA copies, Mean Diff. (Vehicle vs. treated)” value ([5]; Row 1 (time), 10mg/kg b.i.d.) was 0 and the “Transform of Nasal Lavage RNA copies, Mean 2 (treated group)” value ([5]; Row 2 (time), 3mg/kg b.i.d.) was 5.027. For the same compound, the “Transform of Nasal Lavage RNA copies, Mean Diff. (Vehicle vs. treated)” value ([5]; Row 2 (time), 3mg/kg b.i.d.) was 0.585, the “Transform of Nasal Lavage RNA copies, Mean 2 (treated group)” value ([5]; Row 2 (time), 10mg/kg b.i.d.) was 4.315 and the “Transform of Nasal Lavage RNA copies, Mean Diff. (Vehicle vs. treated)” value ([5]; Row 2 (time), 10mg/kg b.i.d.) was 1.297. The “Transform of Nasal Lavage RNA copies, Mean 2 (treated group)” value ([5]; Row 3 (time), 3mg/kg b.i.d.) was 5.927, the “Transform of Nasal Lavage RNA copies, Mean Diff. (Vehicle vs. treated)” value ([5]; Row 3 (time), 3mg/kg b.i.d.) was 0.2134 and the “Transform of Nasal Lavage RNA copies, Mean 2 (treated group)” value ([5]; Row 3 (time), 10mg/kg b.i.d.) was 4.129. The “Transform of Nasal Lavage RNA copies, Mean Diff. (Vehicle vs. treated)” value ([5]; Row 3 (time), 10mg/kg b.i.d.) was 2.012, the “Transform of Nasal Lavage RNA copies, Mean 2 (treated group)” value ([5]; Row 4 (time), 3mg/kg b.i.d.) was 5.77 and the “Transform of Nasal Lavage RNA copies, Mean Diff. (Vehicle vs. treated)” value ([5]; Row 4 (time), 3mg/kg b.i.d.) was -0.1446. For the same compound, the “Transform of Nasal Lavage RNA copies, Mean 2 (treated group)” value ([5]; Row 4 (time), 10mg/kg b.i.d.) was 3.777, the “Transform of Nasal Lavage RNA copies, Mean Diff. (Vehicle vs. treated)” value ([5]; Row 4 (time), 10mg/kg b.i.d.) was 1.849 and the “Transform of Nasal Lavage RNA copies, Mean 2 (treated group)” value ([5]; Row 5 (time), 3mg/kg b.i.d.) was 5.662. The “Transform of Nasal Lavage RNA copies, Mean Diff. (Vehicle vs. treated)” value ([5]; Row 5 (time), 3mg/kg b.i.d.) was 0.07178, the “Transform of Nasal Lavage RNA copies, Mean 2 (treated group)” value ([5]; Row 5 (time), 10mg/kg b.i.d.) was 3.751 and the “Transform of Nasal Lavage RNA copies, Mean Diff. (Vehicle vs. treated)” value ([5]; Row 5 (time), 10mg/kg b.i.d.) was 1.983. The “reduction of virus burden in the turbinates” value ([5]; in vivo) was “one order of magnitude”, the “viral RNA copies in nasal lavages and turbinates vs vehicle” value ([5]; in vivo) was “statistically significant mean reduction” and the “virus burden in the turbinates” value ([5]; in vivo) was “approached the limit of detection”. The “virus load in nasal lavages vs vehicle” value ([5]; in vivo) was “approximately one order of magnitude lower”, the “virus shedding in nasal lavages” value ([5]; in vivo) was “near-detection level” and the “% cell viability” value ([6]; 0.046 µM) was 88% and 92%. The “% cell viability” value ([6]; 1.235 µM) was 112%, the “% cell viability” value ([6]; 3.704 µM) was 115% and the “% cell viability” value ([6]; 33.333 µM) was 86% and 83%. For the same compound, the CC50 ([6]; “M2” HAE) was 39.7 µM, the “SARS-CoV-2 RNA copies in lungs of contacts (Fig 4G)” value ([7]; Contact - GS-621763) was “not detected” and the “Nasal turbinate RNA, Mean Diff. GS-621763 vs. Contact - GS-621763” value ([7]; Fig 4e, […], 10 mg/kg b.i.d.) was 0.9216. For the same compound, the “Nasal turbinate RNA, Mean Diff. GS-621763 vs. Contact - Vehicle” value ([7]; Fig 4e, […], 10 mg/kg b.i.d.) was -3.233, the “Nasal turbinate RNA, group mean of Contact - GS-621763 (Transform of Brazil - Nasal Turbinate RNA)” value ([7]; Fig 4e, […], contacts of GS-621763-treated source animals) was 4.287 and the “Turbinate titers, Mean Diff. GS-621763 vs. Contact - GS-621763” value ([7]; Fig 4d, […], 10 mg/kg b.i.d.) was 0. For the same compound, the “Turbinate titers, Mean Diff. GS-621763 vs. Contact - Vehicle” value ([7]; Fig 4d, […], 10 mg/kg b.i.d.) was -3.824, the “Turbinate titers, group mean of Contact - GS-621763 (Transform of Brazil - Turbinate Titers)” value ([7]; Fig 4d, […], contacts of GS-621763-treated source animals) was 0.9542 and the “Infectious virus titer in nasal lavage of contacts (Fig 4B)” value ([7]; in vivo) was 5 pfu. For the same compound, the “Nasal turbinate RNA, Mean Diff. Contact - Vehicle vs. Contact - GS-621763” value ([7]; in vivo) was 4.155, the “Nasal turbinate RNA, Mean Diff. Vehicle vs. Contact - GS-621763” value ([7]; in vivo) was 4.881 and the “Turbinate titers, Mean Diff. Contact - Vehicle vs. Contact - GS-621763” value ([7]; in vivo) was 3.824. The “Turbinate titers, Mean Diff. Vehicle vs. Contact - GS-621763” value ([7]; in vivo) was 3.511, the “viral RNA in nasal turbinates of contact animals of treated source ferrets” value ([7]; in vivo) was < 10^5 copies/g nasal turbinate and the “virus transmission to untreated direct-contact animals” value ([7]; in vivo) was “completely blocked virus transmission”. The “% cell viability” value ([8]; DF2 HAE, 1.235 µM) was 106%, the “% cell viability” value ([8]; DF2 HAE, 3.704 µM) was 113% and the “% cell viability” value ([8]; DF2 HAE, 33.333 µM) was 114%. The “% cell viability” value ([8]; human, 100 µM) was 5% and the viability at 72 h, 0.046 µM [9] was 92%.
